Each structure is given as a SMILES string.

The experiment concerns the target T1, MAGL (Homo sapiens, UniProt Q99685).
T1 sequence (Q99685 1-303): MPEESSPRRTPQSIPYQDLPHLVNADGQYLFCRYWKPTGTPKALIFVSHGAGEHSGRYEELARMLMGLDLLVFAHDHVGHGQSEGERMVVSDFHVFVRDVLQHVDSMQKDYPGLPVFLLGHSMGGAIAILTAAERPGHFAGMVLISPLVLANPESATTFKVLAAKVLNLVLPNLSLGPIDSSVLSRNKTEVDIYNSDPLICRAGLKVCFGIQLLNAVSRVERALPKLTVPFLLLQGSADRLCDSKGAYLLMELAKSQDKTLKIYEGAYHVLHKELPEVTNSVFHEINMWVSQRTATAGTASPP
Put plainly: 2-AG assay (MAGL inhibitory activity, hydrolysis of 2-arachidonoylglycerol followed by mass spectrometry). The format is biochemical. To be noted: 50 pM MAGL, 8 μM 2-arachidonoylglycerol, 15 min preincubation, 30 min incubation at RT, concentration range 12.5 μM to 0.8 pM. Put shortly: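 Activity derived from the arachidonic acid/d8-arachidonic acid MS intensity ratio after acetonitrile quench. Reaction: 8 μM 2-AG substrate with 50 pM MAGL, 30 min at RT, following 15 min RT compound preincubation; buffer 50 mM TRIS, 1 mM EDTA, 0.01% Tween; final compound range 12.5 μM to 0.8 pM.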
Broadly, the IC50 is the concentration needed to halve the response being measured. Consider `CS(=O)(=O)c1ncc(C(F)(F)F)cc1-c1ccc(C2CN(C(=O)CC[C@@H]3COC(=O)N3)C2)cc1` [Example 124, (4R)-4-[3-[3-[4-[2-Methyl-sulfonyl-5-(trifluoromethyl)-3-pyridyl]phenyl]azetidin-1-yl]-3-oxo-propyl] oxazolidin-2-one], for which the IC50 amounted to 3 nM.

For `O=C1N[C@H](CCC(=O)N2CC3(CC(Cc4ccc(C(F)(F)F)nc4)C3)C2)CO1` [Example 125, (4R)-4-[3-Oxo-3-[6-[[6-(trifluoro-methyl)-3-pyridyl]methyl]-2-azaspiro[3.3]heptan-2-yl]propyl] oxazolidin-2-one], 9 nM corresponded to half-maximal inhibition (IC50).

The compound `O=C1N[C@H](CCC(=O)N2CC3(CCN(Cc4ccc(C(F)(F)F)cc4F)CC3)C2)CO1` [Example 126, (4R)-4-[3-[7-[[2-Fluoro-4-(trifluoro-methyl)phenyl]methyl]-2,7-diazaspiro[3.5]nonan-2-yl]-3-oxo-propyl] oxazolidin-2-one] yielded an IC50 of 25 nM.

In turn, `O=C1N[C@H](CCC(=O)N2CC(c3ccc(Oc4nccc(C(F)(F)F)n4)cc3)C2)CO1` [Example 127, (4R)-4-[3-Oxo-3-[3-[4-[4-(trifluoro-methyl)pyrimidin-2-yl]oxyphenyl]azetidin-1-yl]propyl]oxazolidin-2-one] returned an IC50 of 1800 nM.

On to `CS(=O)(=O)c1ccc(-c2ccc(C3CN(C(=O)CC[C@@H]4COC(=O)N4)C3)cc2)c(C(F)(F)F)c1` [Example 128, (4R)-4-[3-[3-[4-[4-Methyl-sulfonyl-2-(trifluoromethyl)phenyl]phenyl]azetidin-1-yl]-3-oxo-propyl] oxazolidin-2-one], for which inhibition was half-maximal at 0.26 nM (IC50).

In turn, `O=C1N[C@H](CCC(=O)N2CC(c3ccc(N4CCC(C(F)(F)F)C4)c(F)c3)C2)CO1` (stereo partly drawn) [Example 129, (4R)-4-[3-[3-[3-Fluoro-4-[3-(trifluoromethyl)pyrrolidin-1-yl]phenyl]azetidin-1-yl]-3-oxo-propyl]oxazolidin-2-one] registered a 50% inhibitory concentration (IC50) of 3 nM. This IC50 is about 12-fold higher than that of the compound before.

As for `O=C1N[C@H](CCC(=O)N2CC(c3ccc(C4CCS(=O)(=O)C4)cc3)C2)CO1` (stereo partly drawn) [Example 130, (4R)-4-[3-[3-[4-(1,1-Dioxothiolan-3-yl)phenyl]azetidin-1-yl]-3-oxo-propyl] oxazolidin-2-one], the concentration for half-maximal inhibition (IC50) was 251 nM.

Take `O=C1N[C@H](CCC(=O)N2CC(c3ccc(N4CC5(CCCC5)C4)cc3)C2)CO1` [Example 131]: inhibition was half-maximal at 1 nM (IC50).

As for `O=C1N[C@H](CCC(=O)N2CC(c3ccc(N4CC5(C4)CC(F)(F)C5)cc3)C2)CO1` [Example 132, (4R)-4-[3-[3-[4-(6,6-Difluoro-2-azaspiro[3.3]heptan-2-yl)phenyl]azetidin-1-yl]-3-oxo-propyl]oxazolidin-2-one], the IC50 worked out at 9 nM.

Regarding `O=C1N[C@H](CCC(=O)N2CC(c3ccc(C4CC(C(F)(F)F)C4)cc3)C2)CO1` (stereo partly drawn) [Example 133, (4R)-4-[3-Oxo-3-[3-[4-[3-(trifluoro-methyl)cyclobutyl]phenyl]azetidin-1-yl]propyl]oxazolidin-2-one], 2 nM corresponded to half-maximal inhibition (IC50). This IC50 lies about 4.5-fold lower than the previous one.

`O=C1N[C@H](CCC(=O)N2CC(c3ccc(N4CC(C(F)(F)F)C4)c(F)c3)C2)CO1` [Example 134, (4R)-4-[3-[3-[3-Fluoro-4-[3-(trifluoromethyl)azetidin-1-yl]phenyl]azetidin-1-yl]-3-oxo-propyl] oxazolidin-2-one] had an IC50 of 16 nM. Against the preceding compound, the IC50 is about 8-fold higher.

The compound `O=C1N[C@H](CCC(=O)N2CC(c3ccc(N4CCC(C(F)(F)F)C4)cc3)C2)CO1` (stereo partly drawn) [Example 135, (4R)-4-[3-Oxo-3-[3-[4-[3-(trifluoro-methyl)pyrrolidin-1-yl]phenyl]azetidin-1-yl]propyl] oxazolidin-2-one] had an IC50 of 5 nM. This IC50 is about 3.2-fold lower than that of the compound before.

`O=C1N[C@H](CCC(=O)N2CC3(CCC(Oc4ccc(C(F)(F)F)nn4)CC3)C2)CO1` [Example 136, (4R)-4-[3-Oxo-3-[7-[6-(trifluoro-methyl)pyridazin-3-yl]oxy-2-azaspiro[3.5]nonan-2-yl]propyl] oxazolidin-2-one] gave an IC50 of 22 nM.

`CS(=O)(=O)c1cc(F)ccc1OC1CCC2(CC1)CN(C(=O)CC[C@@H]1COC(=O)N1)C2` [Example 137, (4R)-4-[3-[7-(4-Fluoro-2-methyl-sulfonyl-phenoxy)-2-azaspiro[3.5]nonan-2-yl]-3-oxo-propyl] oxazolidin-2-one] showed an IC50 of 43 nM.

Regarding `O=C1N[C@H](CCC(=O)N2CC3(CCC(NS(=O)(=O)c4cccc(OC(F)(F)F)c4)CC3)C2)CO1` [Example 138, N-[2-[3-[(4R)-2-Oxooxazolidin-4-yl]propanoyl]-2-azaspiro[3.5]nonan-7-yl]-3-(trifluoro-methoxy)benzene-sulfonamide], half-maximal inhibition (IC50) required 62 nM.

The compound `O=C1N[C@H](CCC(=O)N2CC(c3cnc(N4CC5(C4)CC(F)(F)C5)cn3)C2)CO1` [Example 139, (4R)-4-[3-[3-[5-(6,6-Difluoro-2-azaspiro[3.3]heptan-2-yl)pyrazin-2-yl]azetidin-1-yl]-3-oxo-propyl]oxazolidin-2-one] registered an IC50 of 123 nM.

The compound `O=C1N[C@H](CCC(=O)N2CC(c3cnc(N4CC5(CCCC5)C4)cn3)C2)CO1` [Example 140, (4R)-4-[3-[3-[5-(2-Azaspiro[3.4]octan-2-yl)pyrazin-2-yl]azetidin-1-yl]-3-oxo-propyl]oxazolidin-2-one] displayed an IC50 of 28 nM.

Regarding `O=C1N[C@H](CCC(=O)N2CC(c3ccc(N4CC5(C4)CC(F)(F)C5)nc3)C2)CO1` [Example 141, (4R)-4-[3-[3-[6-(6,6-Difluoro-2-azaspiro[3.3]heptan-2-yl)-3-pyridyl]azetidin-1-yl]-3-oxo-propyl]oxazolidin-2-one], the IC50 worked out at 78 nM. This IC50 lies about 2.8-fold higher than the previous one.

Regarding `O=C1N[C@H](CCC(=O)N2CC(c3ccc(N4CC5(CCCC5)C4)nc3)C2)CO1` [Example 142, (4R)-4-[3-[3-[6-(2-Azaspiro[3.4]octan-2-yl)-3-pyridyl]azetidin-1-yl]-3-oxo-propyl]oxazolidin-2-one], the IC50 stood at 13 nM.

Consider `O=C1N[C@H](CCC(=O)N2CC3(CCN(S(=O)(=O)c4ccc(C(F)(F)F)cc4F)CC3)C2)CO1` [Example 143, (4R)-4-[3-[7-[2-Fluoro-4-(trifluoromethyl)phenyl]sulfonyl-2,7-diazaspiro [3.5]nonan-2-yl]-3-oxo-propyl]oxazolidin-2-one], for which 190 nM corresponded to half-maximal inhibition (IC50).

For `O=C1N[C@H](CCC(=O)N2CC(c3ccc(N4CC(O)(C(F)(F)F)C4)nc3)C2)CO1` [Example 144, (4R)-4-[3-[3-[6-[3-Hydroxy-3-(trifluoro-methyl)azetidin-1-yl]-3-pyridyl]azetidin-1-yl]-3-oxo-propyl]oxazolidin-2-one], it took 172 nM to reach half-maximal inhibition (IC50).

`Cc1cc(C)n(-c2ccc(C3CN(C(=O)CC[C@@H]4COC(=O)N4)C3)cc2)n1` [Example 145, (4R)-4-[3-[3-[4-(3,5-Dimethyl-pyrazol-1-yl)phenyl]azetidin-1-yl]-3-oxo-propyl]oxazolidin-2-one]: half-maximal inhibition (IC50) required 73 nM.

For the compound `O=C1N[C@H](CCC(=O)N2CC(c3ccc(N4CCC(O)(C(F)(F)F)C4)nc3)C2)CO1` (stereo partly drawn) [Example 146, (4R)-4-[3-[3-[6-[3-Hydroxy-3-(trifluoro-methyl)pyrrolidin-1-yl]-3-pyridyl]azetidin-1-yl]-3-oxo-propyl] oxazolidin-2-one], the IC50 came out at 137 nM.

As to `O=C1N[C@H](CCC(=O)N2CC3(C2)CN(S(=O)(=O)c2ccc(C(F)(F)F)cc2)C3)CO1` [Example 147, (4R)-4-[3-Oxo-3-[2-[4-(trifluoromethyl)phenyl]sulfonyl-2,6-diazaspiro [3.3]heptan-6-yl]propyl] oxazolidin-2-one], the IC50 was found to be 2270 nM.

Take `O=C1N[C@H](CCC(=O)N2CC3(C2)CN(S(=O)(=O)c2ccccc2OC(F)(F)F)C3)CO1` [Example 148, (4R)-4-[3-Oxo-3-[2-[2-(trifluoro-methoxy)phenyl]sulfonyl-2,6-diazaspiro[3.3]heptan-6-yl]propyl]oxazolidin-2-one]: the half-maximal inhibitory concentration (IC50) came to 498 nM.

As for `O=C1N[C@H](CCC(=O)N2CC3(C2)CN(S(=O)(=O)c2cccc(OC(F)(F)F)c2)C3)CO1` [Example 149, (4R)-4-[3-Oxo-3-[2-[3-(trifluoro-methoxy)phenyl]sulfonyl-2,6-diazaspiro[3.3]heptan-6-yl]propyl]oxazolidin-2-one], the IC50 was found to be 976 nM. Against the preceding compound, the IC50 is about 2-fold higher.

Turning to `O=C1N[C@H](CCC(=O)N2CC3(C2)CN(S(=O)(=O)c2ccc(OC(F)(F)F)cc2)C3)CO1` [Example 150, (4R)-4-[3-Oxo-3-[2-[4-(trifluoro-methoxy)phenyl]sulfonyl-2,6-diazaspiro[3.3]heptan-6-yl]propyl] oxazolidin-2-one], 2140 nM corresponded to half-maximal inhibition (IC50).

`O=C1N[C@H](CCC(=O)N2CC3(CC(Nc4ccc(C(F)(F)F)nn4)C3)C2)CO1` [Example 151, (4R)-4-[3-Oxo-3-[6-[[6-(trifluoro-methyl)pyridazin-3-yl]amino]-2-azaspiro[3.3]heptan-2-yl]propyl] oxazolidin-2-one]: the IC50 turned out to be 1240 nM. This IC50 lies about 1.7-fold lower than the previous one.

With `O=C1N[C@H](CCC(=O)N2CC3(CC(Oc4ccc(C(F)(F)F)nn4)C3)C2)CO1` [Example 152, (4R)-4-[3-Oxo-3-[6-[6-(trifluoro-methyl)pyridazin-3-yl]oxy-2-azaspiro[3.3]heptan-2-yl]propyl] oxazolidin-2-one], the IC50 was 1410 nM.

Consider `NS(=O)(=O)c1ccccc1CN1CC2(C1)CN(C(=O)CC[C@@H]1COC(=O)N1)C2` [Example 153, 2-[[2-[3-[(4R)-2-Oxooxazolidin-4-yl]propanoyl]-2,6-diazaspiro[3.3]heptan-6-yl]methyl]benzene-sulfonamide], for which inhibition was half-maximal at 2330 nM (IC50). This IC50 is about 1.7-fold higher than that of the compound before.

The values above are taken from patent US11981661B2, “Heterocyclic compounds” (Hoffmann-La Roche Inc., priority 2020, dated 2024).
